According to US10154970B2, “Methods for immunomodulation of cancer and infectious disease therapy” (The Regents of the University of California, priority 2014, dated 2018):

Columns and labels:
[1] = system: cytotoxic T lymphocyte activity
Description: (§1) FIG. 15. […] Antigen-specific IFN-γ immune response was assessed by ELISpot 48 hours following two cycles of peptide vaccine (PV).
(§2) A total of 55 mixed-sex hMUC1.Tg C57BL/6 mice, starting at approximately five weeks of age, were treated with urethane as described above. Approximately six weeks after the last dose of urethane, mice were randomized into four treatment groups of approximately equal average weight: Control (n=22); TRIP (i.e., ospemifene) 50 mg/kg (n=16); tecemotide (L-BLP25) peptide vaccine (PV) (n=6); and TRIP+PV (n=11). At this time (Week 21), mice assigned to the […] began treatment with the first of two cycles consisting of eight weekly 10 μg doses each, with approximately four weeks between cycles. Cycle 1 was administered during Weeks 21-28, and Cycle 2 from Weeks 32-39. The PV was prepared and administered as described above. Mice in the TRIP groups began daily oral treatment in Week 31, which continued through the end of the study (approximately eight weeks of dosing). TRIP was prepared and administered as described above. Mice not assigned to TRIP treatment received daily oral doses of diluent. At the conclusion of the study, 48 h after the final dose of PV and 24 h after the last dose of TRIP, all mice were euthanized for the collection of serum and spleens, which were processed as described above for multiplex serum cytokine, Treg, and CTL analyses.

IFN-γ [2] = conditions: chronic daily TRIP 50 mg/kg + two cycles of PV
Description: as §1, §2

IL-2 = IL-2 mRNA expression in Jurkat cells by qRT-PCR, normalized with GAPDH; assay type: cell-based, human
Description: FIG. 1. Interferon gamma (IFN-γ) and interleukin (IL)-2 expression in human Jurkat cells following exposure to TRIP in vitro. Jurkat cells (2×10^6) were treated with different concentrations of TRIP as indicated for 24 hours. (A) IFN-γ and (B) IL-2 mRNA expression levels were detected by quantitative real-time polymerase chain reaction (qRT-PCR) and normalized with the expression of GAPDH. *p<0.05, **p<0.01, ***p<0.001.
FIG. 3. Effects of TRIP alone and in combination with trifluoperazine (TFP) or LY294002 (LY) on IFN-γ and IL-2 in human Jurkat cells in vitro. Jurkat cells (2×10^6) were pretreated with different concentrations of (A, B) TFP (0, 0.1, 1.0, 5.0, and 10.0 μM) and (C, D) LY294002 (0, 1, 5, 10, and 25 μM) for 1 hour, then incubated with medium containing 2.5 μM of TRIP for 24 hours. (A, C) IFN-γ and (B, D) IL-2 mRNA expression levels were detected by qRT-PCR and normalized with the expression of GAPDH. *p<0.05, **p<0.01, ***p<0.001.
FIG. 4. Effects of calmodulin, PI3K and MAPK inhibition on TRIP-induced expression of IFN-γ and IL-2 in human Jurkat cells in vitro. Jurkat cells (2×10^6) were pretreated with PD98059 (50 μM), TFP (10 μM) and LY294002 (25 μM) for 1 hour, then incubated with medium containing 2.5 μM of TRIP for 24 hours. (A) IFN-γ and (B) IL-2 mRNA expression levels were detected by qRT-PCR and normalized with the expression of GAPDH. **p<0.01, ***p<0.001, ****p<0.0001.
The potential immune regulating effects of TRIP and the possible mechanism(s) involved were determined with in vitro experiments examining the expression of T cell activating cytokines in human acute T cell leukemia Jurkat cells. The expression of IFN-γ and IL-2 RNA following exposure to increasing concentrations of TRIP (i.e., ospemifene) were first examined, followed by the effects of combining tamoxifen with TRIP on the expression of these cytokines. Different inhibitors of key T cell activation pathways—trifluoperazine (TFP), an inhibitor of calmodulin, LY294002, an inhibitor of PI3K, and PD98059, a MAPK inhibitor—in combination with TRIP were assessed for their effects on TRIP-induced expression of IFN-γ and IL-2 in Jurkat cells.
Jurkat cells (2.0×10^6) were treated with different concentrations of TRIP as indicated on the x-axis for 24 hours. (A) IFN-γ and (B) IL-2 mRNA expression levels were detected by quantitative real-time polymerase chain reaction (qRT-PCR) and normalized with the expression of GAPDH. *p<0.05, **p<0.01, ***p<0.001.
T cell activation requires multiple signals including PI3K, MAPK and calcium signaling pathways, and in order to identify the potential mechanism through which TRIP affects immune activation, Jurkat cells (2.0×10^6) were pretreated with different concentrations of TFP (0, 0.1, 1.0, 5.0 and 10.0 μM) (A, B) or LY294002 (0, 1, 5, 10 and 25 μM) (C, D) for one hour, then incubated with medium containing 2.5 μM TRIP for 24 hours. IFN-γ and IL-2 expression levels were detected by qRT-PCR and normalized with the expression of GAPDH. *p<0.05, **p<0.01, ***p<0.001.
Jurkat cells (2×10^6) were pretreated with PD98059 (50 μM), TFP (10 μM) or LY294002 (25 μM) for one hour, then incubated with medium containing 2.5 μM TRIP for 24 hours. (A) IFN-γ and (B) IL-2 mRNA expression levels were detected by qRT-PCR and normalized with expression of GAPDH. **p<0.01, ***p<0.001, ****p<0.0001.
The effects on T cell activation of different functional group substitutions on the TRIP chemical structure (Formula Ia) were examined by measuring the expression of IFN-γ and IL-2 RNA in human acute T cell leukemia Jurkat cells in vitro.
A strong increase is defined as a ≥50% increase compared to the control. A moderate increase is defined as a 25-49% increase compared to the control. A weak increase is defined as a 0-24% increase compared to the control. No effect is when there was no increase compared to the control.

IFN-γ [3] = experiment: Example 6: serum IFN-γ on Day 28 in allograft-bearing mice; assay type: in vivo, C57BL/6 wild type mice; conditions: Day 28, 48 hours after final PV dose; TRIP 100 mg/kg
Description: Each of four weekly 100-μg injections of peptide vaccine (PV) was preceded by three daily oral doses of TRIP (100 mg/kg). All mice were implanted with breast cancer allografts on Day 0, and serum was collected on Day 28 following four weeks of treatment. […] For all treatment groups, n=8.
A total of 32 female C57BL/6 wild type mice were assigned to four treatment groups (n=8): Control; TRIP (i.e., ospemifene) 100 mg/kg; tecemotide (L-BLP25) peptide vaccine (PV) (100 μg); and TRIP 100 mg/kg combined with 100 μg PV. On Day 0 of the study, all 32 mice were subcutaneously implanted with 1.0×10^6 mouse breast cancer cells expressing the PV target antigen (BP25). Two days later, mice began a three-day regimen of once daily 100 mg/kg TRIP administered orally. On Day 5, mice were administered their first weekly 100 μg dose of PV by subcutaneous injection. This treatment schedule was repeated for a total of four weeks. […] All mice were euthanized on Day 28 for the collection of serum and spleens to assess immune response to treatment. Immune response was assessed by performing IFN-γ ELISpot.

[4] = chronic daily TRIP 50 mg/kg + PV

SMILES: OCCOc1ccc(/C(=C(/CCCl)c2ccccc2)c2ccccc2)cc1 [TRIP, Z-2-[4-(4-chloro-1,2-diphenyl-but-1-enyl)-phenoxy]ethanol]
- CTL activity of the combination over that of PV alone [1, 4]: increased CTL activity
- additive CTL activity in combination with PV [1, 4]: no additive CTL activity
- CTL activity compared to control ([1]; chronic daily TRIP 50 mg/kg alone): slightly, but not significantly increased
- PV-induced, antigen-specific immune response (IFN-γ ELISpot) (IFN-γ [2]): significantly decreased
- IL-2 RNA expression compared to control (IL-2; Jurkat cells, different concentrations of TRIP, 24 hours, dose-dependent (FIG. 1B)): significantly induced
- IL-2 Expression (IL-2; mRNA in Jurkat cells in vitro, relative to control sample without TRIP compound): +++ (strong increase)
- serum IFN-γ compared to the control and TRIP alone treatment groups, TRIP + PV (IFN-γ [3]): significantly increased
